# Laboratory results reported in US20220033397A1, “PHARMACEUTICAL COMPOUNDS AND THEIR USE AS INHIBITORS OF UBIQUITIN SPECIFIC PROTEASE 19 (USP19)” (ALMAC DISCOVERY LIMITED, priority 2018, published 2022).
# Biological target: T1, Full-length USP19 (Homo sapiens, UniProt O94966)
# T1 construct: Full-length USP19 was purchased from Boston Biochem (E-576); purchased Boston Biochem E-576
# T1 sequence (O94966 1-1318): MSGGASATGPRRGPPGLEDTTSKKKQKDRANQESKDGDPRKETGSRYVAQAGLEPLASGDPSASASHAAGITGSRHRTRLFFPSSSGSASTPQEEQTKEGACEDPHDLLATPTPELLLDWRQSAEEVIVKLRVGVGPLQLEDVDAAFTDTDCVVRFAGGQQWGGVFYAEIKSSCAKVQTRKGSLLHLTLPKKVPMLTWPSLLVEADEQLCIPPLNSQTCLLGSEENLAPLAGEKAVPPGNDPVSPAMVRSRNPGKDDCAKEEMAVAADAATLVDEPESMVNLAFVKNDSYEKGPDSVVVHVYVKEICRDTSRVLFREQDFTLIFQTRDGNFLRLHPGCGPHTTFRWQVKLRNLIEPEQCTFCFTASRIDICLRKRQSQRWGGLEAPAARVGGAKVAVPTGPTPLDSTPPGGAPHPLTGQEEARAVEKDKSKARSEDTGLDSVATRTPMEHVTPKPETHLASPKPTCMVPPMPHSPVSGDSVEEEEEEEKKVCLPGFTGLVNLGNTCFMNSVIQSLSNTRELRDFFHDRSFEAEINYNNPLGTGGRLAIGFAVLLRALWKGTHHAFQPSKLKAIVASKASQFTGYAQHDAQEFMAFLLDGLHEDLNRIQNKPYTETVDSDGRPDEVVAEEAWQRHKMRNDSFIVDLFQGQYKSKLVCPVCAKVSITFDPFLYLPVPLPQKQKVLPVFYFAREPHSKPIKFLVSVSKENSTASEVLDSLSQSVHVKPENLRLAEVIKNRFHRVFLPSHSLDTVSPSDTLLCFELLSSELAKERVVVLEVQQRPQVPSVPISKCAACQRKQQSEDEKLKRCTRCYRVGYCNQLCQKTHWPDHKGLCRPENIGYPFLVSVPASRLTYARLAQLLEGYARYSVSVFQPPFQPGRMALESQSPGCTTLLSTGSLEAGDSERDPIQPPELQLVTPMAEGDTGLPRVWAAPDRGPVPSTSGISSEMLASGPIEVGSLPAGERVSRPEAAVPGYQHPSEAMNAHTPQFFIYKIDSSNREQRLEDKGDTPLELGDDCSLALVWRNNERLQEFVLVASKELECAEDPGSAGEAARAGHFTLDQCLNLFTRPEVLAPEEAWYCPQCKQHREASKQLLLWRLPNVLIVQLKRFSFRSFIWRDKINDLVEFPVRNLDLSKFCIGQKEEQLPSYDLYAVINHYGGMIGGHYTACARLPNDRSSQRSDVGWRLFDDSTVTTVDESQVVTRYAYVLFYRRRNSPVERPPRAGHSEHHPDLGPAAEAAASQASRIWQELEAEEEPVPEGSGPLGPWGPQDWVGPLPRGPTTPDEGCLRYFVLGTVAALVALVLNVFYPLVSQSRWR
# Test: USP19 fluorescence polarisation (FP) homogeneous assay with Ubiquitin-Lys-TAMRA substrate
# Assay type: biochemical
# Conditions: 2.5 nM USP19, 30 min pre-incubation, average of at least two duplicate experiments
# Method: Unless otherwise stated, all other reagents were purchased from Sigma. Enzymatic reactions were conducted in black flat bottom polystyrene 384-well plates (Nunc) and 30 μL total volume. […] Inhibitors were stored as 10 mM DMSO stocks in an inert environment (low humidity, dark, low oxygen, room temperature) using the Storage Pod System and serial dilutions were prepared in buffer just prior to the assay (from 200 μM to 2 μM, 8-18 data point curve).
# Following incubation at RT for 30 min, the enzymatic reactions were initiated by dispensing the Ub substrate (500 nM, 10 μL). FP was measured every 15 min over a period of 90 min (within the linear range of the assay) using a Synergy 4 plate reader (BioTek) exciting at 530 nm and measuring the amount of parallel and perpendicular light at 575 nm. The FP signal was subsequently normalised to the no compound control.
row,SMILES,IC50
1,N=S1(=O)CCN(C(=O)N2CC[C@@](O)(Cn3cnc(-c4ccccc4)cc3=O)C3(CCCC3)C2)[C@H](c2cc(F)ccc2F)C1 (mixture of isomers) [Example 395],< 0.5 µM
2,"O=C(N1CC[C@@](O)(Cn2cnc(-c3ccccc3)cc2=O)C2(CCCC2)C1)N1CCNCC1c1cc(F)cc(F)c1 (mixture of isomers) [Example 380, 3-(((10S)-7-(2-(3,5-difluorophenyl)piper-azine-1-carbonyl)-10-hydroxy-7-azaspiro[4.5]decan-10-yl)methyl)-6-phenylpyrimidin-4(3H)-one]",< 0.5 µM
3,"C[C@H](CC1CCCCC1)C(=O)N1CCC(O)(Cn2cc(-c3ccccc3)ncc2=O)C(C)(C)C1 (stereo partly drawn) [Example 2, 1-((1-((R)-3-Cyclohexyl-2-methylpropanoyl)-4-hydroxy-3,3-dimethylpiperidin-4-yl)methyl)-5-phenylpyrazin-2(1H)-one]",0.5 to 5 µM
4,"C[C@H](CC(F)(F)F)C(=O)N1CCC(O)(Cn2ccncc2=O)C2(CCCC2)C1 (stereo partly drawn) [Example 5, 1-((10-Hydroxy-7-((R)-4,4,4-trifluoro-2-methylbutanoyl)-7-azaspiro[4.5]decan-10-yl)methyl)pyrazin-2(1H)-one]",5 to 50 µM
5,"C[C@H](CC1CCCCC1)C(=O)N1CCC(O)(Cn2cc(C(=O)N3CCNCC3)ncc2=O)C2(CCCC2)C1 (stereo partly drawn) [Example 11, 1-((7-((R)-3-Cyclohexyl-2-methylpropanoyl)-10-hydroxy-7-azaspiro[4.5]decan-10-yl)methyl)-5-(piperazine-1-carbonyl)pyrazin-2(1H)-one]",< 0.5 µM
6,"C[C@H](CC1CCCCC1)C(=O)N1CCC(O)(Cn2cc(-c3cccnc3)ncc2=O)C(C)(C)C1 (stereo partly drawn) [Example 12, 1-((1-((R)-3-Cyclohexyl-2-methylpropanoyl)-4-hydroxy-3,3-dimethylpiperidin-4-yl)methyl)-5-(pyridin-3-yl)pyrazin-2(1H)-one]",0.5 to 5 µM
7,"C[C@H](CC1CCCCC1)C(=O)N1CCC(O)(Cn2cc(N3CCCC3=O)ncc2=O)C(C)(C)C1 (stereo partly drawn) [Example 13, 1-((1-((R)-3-Cyclohexyl-2-methylpropanoyl)-4-hydroxy-3,3-dimethylpiperidin-4-yl)methyl)-5-(2-oxopyrrolidin-1-yl)pyrazin-2(1H)-one]",0.5 to 5 µM
8,"C[C@H](CC1CCCCC1)C(=O)N1CCC(O)(Cn2cc(-c3ccncc3)ncc2=O)C(C)(C)C1 (stereo partly drawn) [Example 14, 1-((1-((R)-3-Cyclohexyl-2-methylpropanoyl)-4-hydroxy-3,3-dimethylpiperidin-4-yl)methyl)-5-(pyridin-4-yl)pyrazin-2(1H)-one]",0.5 to 5 µM
9,"C[C@H](CC1CCCCC1)C(=O)N1CCC(O)(Cn2cc(-c3ccn[nH]3)ncc2=O)C(C)(C)C1 (stereo partly drawn) [Example 17, 1-((1-((R)-3-Cyclohexyl-2-methylpropanoyl)-4-hydroxy-3,3-dimethylpiperidin-4-yl)methyl)-5-(1H-pyrazol-5-yl)pyrazin-2(1H)-one]",0.5 to 5 µM
10,"C[C@H](CC1CCCCC1)C(=O)N1CCC(O)(Cn2cc(-n3cccn3)ncc2=O)C(C)(C)C1 (stereo partly drawn) [Example 18, 1-((1-((R)-3-Cyclohexyl-2-methylpropanoyl)-4-hydroxy-3,3-dimethylpiperidin-4-yl)methyl)-5-(1H-pyrazol-1-yl)pyrazin-2(1H)-one]",0.5 to 5 µM
11,"Cc1cn(CC2(O)CCN(C(=O)[C@H](C)CC3CCCCC3)CC2(C)C)c(=O)cn1 (stereo partly drawn) [Example 21, 1-((1-((R)-3-Cyclohexyl-2-methylpropanoyl)-4-hydroxy-3,3-dimethylpiperidin-4-yl)methyl)-5-methylpyrazin-2(1H)-one]",5 to 50 µM
12,"C[C@H](CC1CCCCC1)C(=O)N1CCC(O)(Cn2cc(C3CC3)ncc2=O)C(C)(C)C1 (stereo partly drawn) [Example 22, 1-((1-((R)-3-Cyclohexyl-2-methylpropanoyl)-4-hydroxy-3,3-dimethylpiperidin-4-yl)methyl)-5-cyclopropylpyrazin-2(1H)-one]",0.5 to 5 µM
13,"C[C@H](CC1CCCCC1)C(=O)N1CCC(O)(Cn2cc(-c3ccccn3)ncc2=O)C(C)(C)C1 (stereo partly drawn) [Example 23, 1-((1-((R)-3-Cyclohexyl-2-methylpropanoyl)-4-hydroxy-3,3-dimethylpiperidin-4-yl)methyl)-5-(pyridin-2-yl)pyrazin-2(1H)-one]",5 to 50 µM
14,"C[C@H](CC(=O)N1CCC(O)(CN2CCN(c3ccccc3F)CC2=O)CC1)c1ccccc1 [Example 24, (R)-4-(2-Fluorophenyl)-1-((4-hydroxy-1-(3-phenylbutanoyl)piperidin-4-yl)methyl)piperazin-2-one]",50 to 250 µM

# Continued, values first:
row,IC50,SMILES
1,0.5 to 5 µM,"C[C@H](CC1CCCCC1)C(=O)N1CCC(O)(Cn2ccncc2=O)C(C)(C)C1 (stereo partly drawn) [Example 1, 1-((1-((R)-3-Cyclohexyl-2-methylpropanoyl)-4-hydroxy-3,3-dimethylpiperidin-4-yl)methyl)pyrazin-2(1H)-one]"
2,0.5 to 5 µM,"C[C@H](CC1CCCCC1)C(=O)N1CCC(O)(Cn2ccncc2=O)C2(CCCC2)C1 (stereo partly drawn) [Example 3, 1-((7-((R)-3-Cyclohexyl-2-methylpropanoyl)-10-hydroxy-7-azaspiro[4.5]decan-10-yl)methyl)pyrazin-2(1H)-one]"
3,0.5 to 5 µM,"C[C@H](CC1CCC1)C(=O)N1CCC(O)(Cn2ccncc2=O)C2(CCCC2)C1 (stereo partly drawn) [Example 4, 1-((7-((R)-3-Cyclobutyl-2-methylpropanoyl)-10-hydroxy-7-azaspiro[4.5]decan-10-yl)methyl) pyrazin-2(1H)-one]"
4,< 0.5 µM,"C[C@H](CC1CCCCC1)C(=O)N1CCC(O)(Cn2cc(Cl)ncc2=O)C2(CCCC2)C1 (stereo partly drawn) [Example 6, 5-Chloro-1-((7-((R)-3-cyclohexyl-2-methylpropanoyl)-10-hydroxy-7-azaspiro[4.5]decan-10-yl)methyl)pyrazin-2(1H)-one]"
5,< 0.5 µM,"C[C@H](CC1CCCCC1)C(=O)N1CCC(O)(Cn2cc(Br)ncc2=O)C2(CCCC2)C1 (stereo partly drawn) [Example 7, 5-Bromo-1-((7-((R)-3-cyclohexyl-2-methylpropanoyl)-10-hydroxy-7-azaspiro[4.5]decan-10-yl)methyl)pyrazin-2(1H)-one]"
6,< 0.5 µM,"COC(=O)c1cn(CC2(O)CCN(C(=O)[C@H](C)CC3CCCCC3)CC23CCCC3)c(=O)cn1 (stereo partly drawn) [Example 8, Methyl 4-((7-((R)-3-cyclohexyl-2-methylpropanoyl)-10-hydroxy-7-azaspiro[4.5]decan-10-yl)methyl)-5-oxo-4,5-dihydropyrazine-2-carboxylate]"
7,0.5 to 5 µM,"C[C@H](CC1CCCCC1)C(=O)N1CCC(O)(Cn2cc(C(=O)O)ncc2=O)C2(CCCC2)C1 (stereo partly drawn) [Example 9, 4-((7-((R)-3-Cyclohexyl-2-methylpropanoyl)-10-hydroxy-7-azaspiro[4.5]decan-10-yl)methyl)-5-oxo-4,5-dihydropyrazine-2-carboxylic acid]"
8,< 0.5 µM,"C[C@H](CC1CCCCC1)C(=O)N1CCC(O)(Cn2cc(C(=O)N(C)C)ncc2=O)C2(CCCC2)C1 (stereo partly drawn) [Example 10, 4-((7-((R)-3-Cyclohexyl-2-methylpropanoyl)-10-hydroxy-7-azaspiro[4.5]decan-10-yl)methyl)-N,N-dimethyl-5-oxo-4,5-dihydropyrazine-2-carboxamide]"
9,0.5 to 5 µM,"C[C@H](CC1CCCCC1)C(=O)N1CCC(O)(Cn2cc(-c3cccnc3)ncc2=O)C2(CCCC2)C1 (stereo partly drawn) [Example 19, 1-((7-((R)-3-Cyclohexyl-2-methylpropanoyl)-10-hydroxy-7-azaspiro[4.5]decan-10-yl)methyl)-5-(pyridin-3-yl)pyrazin-2(1H)-one]"
10,0.5 to 5 µM,"C[C@H](CC1CCCCC1)C(=O)N1CCC(O)(Cn2cc(-c3ccncc3)ncc2=O)C2(CCCC2)C1 (stereo partly drawn) [Example 20, 1-((7-((R)-3-Cyclohexyl-2-methylpropanoyl)-10-hydroxy-7-azaspiro[4.5]decan-10-yl)methyl)-5-(pyridin-4-yl)pyrazin-2(1H)-one]"
